From patent publication US10947254B2, “Methods for treating ulcerative colitis using 3-((1R,3s,5S)-3-((7-((5-methyl-1H-pyrazol-3-yl)amino)-1,6-naphthyridin-5-yl)amino)-8-azabicyclo[3.2.1]octan-8-yl)propanenitrile” (priority 2015, dated 2021)

Key:
[1] = system: oxazolone-induced colitis; assay: Mouse model of oxazolone-induced colitis; assay type: in vivo, BALB/C mice; details: mice, PO, 1, 3, and/or 10 mg/kg BID (doses up to 10 mg/kg BID)
Experimental: Assay 7: Mouse Model of Oxazalone-Induced Colitis
Oxazolone-induced colitis is an experimental model that has a histological resemblance to human ulcerative colitis (Heller et al. Immunology, 2002, 17, 629-638). Adult BALB/C mice from Harlan were used in the assay. On day 1, animals were lightly anesthetized with isoflurane and the hairs between the shoulder were carefully removed before oxazolone (4%, 150 μL, 4:1 acetone:olive oil formulation) or vehicle solution was slowly applied for skin sensitization. Seven days after skin sensitization, the mice were fasted overnight, anesthetized with isoflurane inhalation, and a 1 mL syringe equipped with a 3.5-F catheter, filled with oxazolone solution, was inserted carefully about 4 cm into the colon of the mouse. Following insertion, 50 μL of the oxazolone solution (1%, 1:1 ethanol:water formulation) was injected very slowly (over 30 sec using an injection pump) into the colon. The catheter was removed and the mice were held vertically (head down) for 2 min to ensure that the entire oxazolone solution remained inside the colon. Drug treatment (PO, BID or TID) or vehicle was initiated a day prior to the oxazolone intrarectal (IR) challenge. Two-day post oxazolone intrarectal challenge, the Disease Activity Index (DAI) was assessed by treatment-blinded experimenters for each mouse according to the criteria score: stool consistency score (0, normal; 2, loose; 4, diarrhea), gross bleeding score (0, absence; 2, blood tinged; 4, presence), and weight loss score (0, none; 1, 1%-5%; 2, 5%-10%; 3, 10%-20%; 4, more than 20%); DAI=average of (stool consistency score+gross bleeding score+weight loss score).
Selected compounds of the invention were tested in the assay. Efficacy in the model is evidenced by a decrease in DAI score as compared with the score from vehicle treated animals.

[2] = system: IL-13 induced STAT6 phosphorylation in BEAS-2B human lung epithelial cells; details: BEAS-2B cells
[3] = system: IL-4 induced STAT6 phosphorylation in THP-1 human monocytic cells; details: THP-1 cells

Cc1cc(Nc2cc3ncccc3c(N[C@@H]3C[C@H]4CC[C@@H](C3)N4CCF)n2)n[nH]1 [Example 2, N^5-((1R,3s,5S)-8-(2-fluoroethyl)-8-azabicyclo[3.2.1]octan-3-yl)-N^7-(5-methyl-1H-pyrazol-3-yl)-1,6-naphthyridine-5,7-diamine] was tested, and the “decrease in DAI score as compared with vehicle treated animals” value (“decrease in DAI score” for short) [1] was “statistically significant decrease”.

With CCC(=O)N1[C@@H]2CC[C@H]1C[C@H](Nc1nc(Nc3cc(C)[nH]n3)cc3ncccc13)C2 [Example 2-1] the “decrease in DAI score” value [1] was “did not exhibit a statistically significant decrease”.

For CCC(C)C(=O)N1C2CCC1CC(Nc1nc(Nc3cc(C)[nH]n3)cc3ncccc13)C2 (stereo not drawn) [Example 2-6], the “decrease in DAI score” value [1] was “did not exhibit a statistically significant decrease” and the “BEAS2B pIC50” value [2] was “A (A represents a pEC50 value ≥7.5 (EC50≤32 nM))”.

With Cc1cc(Nc2cc3ncccc3c(NC3CC4CCCC(C3)N4C(=O)C(C)O)n2)n[nH]1 (stereo not drawn) [Example 2-16] the “decrease in DAI score” value [1] was “did not exhibit a statistically significant decrease”.

CCOCC(=O)N1[C@@H]2CCC[C@H]1C[C@H](Nc1nc(Nc3cc(C)[nH]n3)cc3ncccc13)C2 [Example 2-17] was tested, and the “decrease in DAI score” value [1] was “did not exhibit a statistically significant decrease” and the “BEAS2B pIC50” value [2] was “A (A represents a pEC50 value ≥7.5 (EC50≤32 nM))”.

For Cc1cc(Nc2cc3ncccc3c(N[C@@H]3C[C@H]4CCC[C@@H](C3)N4C(=O)C(C)(C)CO)n2)n[nH]1 [Example 2-22], the “decrease in DAI score” value [1] was “did not exhibit a statistically significant decrease” and the “BEAS2B pIC50” value [2] was “A (A represents a pEC50 value ≥7.5 (EC50≤32 nM))”.

For Cc1cc(Nc2cc3ncccc3c(N[C@@H]3C[C@H]4CCC[C@@H](C3)N4C(=O)Cc3ccccc3)n2)n[nH]1 [Example 2-24], the “decrease in DAI score” value [1] was “did not exhibit a statistically significant decrease”, the “THP-1 IL4 pIC50” value [3] was “A (A represents a pEC50 value ≥7.5 (EC50≤32 nM))” and the “BEAS2B pIC50” value [2] was “A (A represents a pEC50 value ≥7.5 (EC50≤32 nM))”.

Cc1cc(Nc2cc3ncccc3c(N[C@@H]3C[C@H]4CC[C@@H](C3)N4S(=O)(=O)c3cccnc3)n2)n[nH]1 [Example 3, N^7-(5-methyl-1H-pyrazol-3-yl)-N^5-((1R,3s,5S)-8-(pyridin-3-ylsulfonyl)-8-azabicyclo[3.2.1]octan-3-yl)-1,6-naphthyridine-5,7-diamine] was tested, and the “decrease in DAI score” value [1] was “statistically significant decrease”.

With Cc1cc(Nc2cc3ncccc3c(N[C@@H]3C[C@H]4CCC[C@@H](C3)N4C(=O)CN(C)C)n2)n[nH]1 [Example 4, 2-(Dimethylamino)-1-((1R,3s,5S)-3-((7-((5-methyl-1H-pyrazol-3-yl)amino)-1,6-naphthyridin-5-yl)amino)-9-azabicyclo[3.3.1]nonan-9-yl)ethan-1-one] the “decrease in DAI score” value [1] was “statistically significant decrease”.

In the case of Cc1cc(Nc2cc3ncccc3c(N[C@@H]3C[C@H]4CC[C@@H](C3)N4S(=O)(=O)CC(C)C)n2)n[nH]1 [Example 4-3], the “decrease in DAI score” value [1] is reported as “did not exhibit a statistically significant decrease”, the “THP-1 IL4 pIC50” value [3] is reported as “A (A represents a pEC50 value ≥7.5 (EC50≤32 nM))” and the “BEAS2B pIC50” value [2] is reported as “A (A represents a pEC50 value ≥7.5 (EC50≤32 nM))”.

Cc1cc(Nc2cc3ncccc3c(N[C@@H]3C[C@H]4CC[C@@H](C3)N4S(=O)(=O)C3CC3)n2)n[nH]1 [Example 4-4] was tested, and the “decrease in DAI score” value [1] was “did not exhibit a statistically significant decrease”.

With Cc1cc(Nc2cc3ncccc3c(N[C@@H]3C[C@H]4CC[C@@H](C3)N4S(=O)(=O)Cc3ccccc3)n2)n[nH]1 [Example 4-13] the “decrease in DAI score” value [1] was “did not exhibit a statistically significant decrease” and the “BEAS2B pIC50” value [2] was “A (A represents a pEC50 value ≥7.5 (EC50≤32 nM))”.

In the case of Cc1cc(Nc2cc3ncccc3c(N[C@@H]3C[C@H]4CCC[C@@H](C3)N4S(=O)(=O)C3CC3)n2)n[nH]1 [Example 4-18], the “decrease in DAI score” value [1] is reported as “did not exhibit a statistically significant decrease”, the “THP-1 IL4 pIC50” value [3] is reported as “A (A represents a pEC50 value ≥7.5 (EC50≤32 nM))” and the “BEAS2B pIC50” value [2] is reported as “A (A represents a pEC50 value ≥7.5 (EC50≤32 nM))”.

With COCCS(=O)(=O)N1[C@@H]2CCC[C@H]1C[C@H](Nc1nc(Nc3cc(C)[nH]n3)cc3ncccc13)C2 [Example 4-19] the “decrease in DAI score” value [1] was “did not exhibit a statistically significant decrease”, the “THP-1 IL4 pIC50” value [3] was “A (A represents a pEC50 value ≥7.5 (EC50≤32 nM))” and the “BEAS2B pIC50” value [2] was “A (A represents a pEC50 value ≥7.5 (EC50≤32 nM))”.

With Cc1cc(Nc2cc3ncccc3c(N[C@@H]3C[C@H]4CCC[C@@H](C3)N4S(=O)(=O)CC3CC3)n2)n[nH]1 [Example 4-23] the “decrease in DAI score” value [1] was “did not exhibit a statistically significant decrease”, the “THP-1 IL4 pIC50” value [3] was “A (A represents a pEC50 value ≥7.5 (EC50≤32 nM))” and the “BEAS2B pIC50” value [2] was “A (A represents a pEC50 value ≥7.5 (EC50≤32 nM))”.

In the case of Cc1cc(Nc2cc3ncccc3c(N[C@@H]3C[C@H]4CC[C@@H](C3)N4C(=O)C(F)F)n2)n[nH]1 [Example 5, 2,2-difluoro-1-((1R,3s,5S)-3-((7-((5-methyl-1H-pyrazol-3-yl)amino)-1,6-naphthyridin-5-yl)amino)-8-azabicyclo[3.2.1]octan-8-yl)ethan-1-one], the “decrease in DAI score” value [1] is reported as “statistically significant decrease”.

In the case of Cc1cc(Nc2cc3nc(CO)ccc3c(N[C@@H]3C[C@H]4CC[C@@H](C3)N4CCC#N)n2)n[nH]1 [Example 5-11], the “decrease in DAI score” value [1] is reported as “did not exhibit a statistically significant decrease” and the “THP-1 IL4 pIC50” value [3] is reported as “A (A represents a pEC50 value ≥7.5 (EC50≤32 nM))”.

With COCCS(=O)(=O)N1[C@@H]2CC[C@H]1C[C@H](Nc1nc(Nc3cc(C)[nH]n3)cc3ncccc13)C2 [Example 6, N^5-((1R,3s,5S)-8-((2-methoxyethyl)sulfonyl)-8-azabicyclo[3.2.1]octan-3-yl)-N^7-(5-methyl-1H-pyrazol-3-yl)-1,6-naphthyridine-5,7-diamine] the “decrease in DAI score” value [1] was “statistically significant decrease”.

In the case of CCS(=O)(=O)N1[C@@H]2CC[C@H]1C[C@H](Nc1nc(Nc3cc(C)[nH]n3)cc3ncccc13)C2 [Example 7, N^5-((1R,3s,5S)-8-(ethylsulfonyl)-8-azabicyclo[3.2.1]octan-3-yl)-N^7-(5-methyl-1H-pyrazol-3-yl)-1,6-naphthyridine-5,7-diamine], the “decrease in DAI score” value [1] is reported as “did not exhibit a statistically significant decrease”.

In the case of Cc1cc(Nc2cc3ncccc3c(N[C@@H]3C[C@H]4CCC[C@@H](C3)N4S(=O)(=O)c3cccnc3)n2)n[nH]1 [Example 8, N^7-(5-methyl-1H-pyrazol-3-yl)-N^5-((1R,3s,5S)-9-(pyridin-3-ylsulfonyl)-9-azabicyclo[3.3.1]nonan-3-yl)-1,6-naphthyridine-5,7-diamine], the “decrease in DAI score” value [1] is reported as “statistically significant decrease”.

In the case of Cc1cc(Nc2cc3ncccc3c(N[C@@H]3C[C@H]4CCC[C@@H](C3)N4S(=O)(=O)c3ccccc3)n2)n[nH]1 [Example 9, N^7-(5-methyl-1H-pyrazol-3-yl)-N^5-((1R,3s,5S)-9-(phenylsulfonyl)-9-azabicyclo[3.3.1]nonan-3-yl)-1,6-naphthyridine-5,7-diamine], the “decrease in DAI score” value [1] is reported as “did not exhibit a statistically significant decrease”.

For Cc1cc(Nc2cc3ncccc3c(N[C@@H]3C[C@H]4CCC[C@@H](C3)N4S(=O)(=O)N3CC(C#N)C3)n2)n[nH]1 [Example 11], the “decrease in DAI score” value [1] was “did not exhibit a statistically significant decrease”.

With Cc1cc(Nc2cc3nc(CO)ccc3c(N[C@@H]3C[C@H]4CC[C@@H](C3)N4C(=O)OCC(C)C)n2)n[nH]1 [Example 12, Isobutyl (1R,3s,5S)-3-((2-(hydroxymethyl)-7-((5-methyl-1H-pyrazol-3-yl)amino)-1,6-naphthyridin-5-yl)amino)-8-azabicyclo[3.2.1]octane-8-carboxylate] the “decrease in DAI score” value [1] was “statistically significant decrease”.

For Cc1cc(Nc2cc3ncccc3c(N[C@@H]3C[C@H]4CC[C@@H](C3)N4S(=O)(=O)N3CC(C#N)C3)n2)n[nH]1 [Example 13], the “decrease in DAI score” value [1] was “did not exhibit a statistically significant decrease”.
